Measurements as given in patent US20230210853A1 (Halia Therapeutics, Inc., priority 2020, published 2023).

Molecular target: T1, full-length recombinant human NEK7 (Homo sapiens, UniProt Q8TDX7)
T1 construct: full-length recombinant human NEK7; GST (N); purchased SignalChem N09-10G; host or cells: Sf9 insect cells (baculovirus)
Test: NEK7 enzymatic assay ([33P]-ATP, casein substrate)
Format: biochemical
Details: recombinant human NEK7, casein substrate
Description: In some embodiments, the IC50 of the compounds of Structure (I), (Ia), (Ib), (Ic), (Id), (Ie), or (If) to inhibit NEK7 was determined by the concentration of the compound required to inhibit 50% of the activity of the NEK kinase.
(§1) Casein substrate (from bovine milk, hydrolyzed and partially dephosphorylated mixture of α, β and κ caseins, obtained from Sigma Aldrich, catalogue #C4765, diluted in distilled water to a final concentration of 1 mg/mL) and full-length recombinant human NEK7 (expressed by baculovirus in Sf9 insect cells using a N-terminal GST tag, obtained from SignalChem, catalogue #N09-10G, 0.1 μg/μL) were mixed in assay buffer (20 mM Hepes pH 7.5, 10 mM MgCl2, 1 mM EGTA, 0.02% Brij35, 0.02 mg/ml BSA, 0.1 mM Na3 VO4, 2 mM DTT, 1% DMSO). Compounds of interest (serial 3-fold dilution in DMSO from 10 μM to 0.5 nM) or vehicle (1% DMSO) were dispensed into the kinase reaction mixture by Acoustic technology (Echo550, nanoliter range). After incubation at room temperature for 20 minutes, the kinase reaction was initiated by addition of [^33P]-ATP (specific activity 10 μCi/μl) and the mixture was incubated at room temperature for 2 hours. The reaction was then stopped by spotting the reaction mixture on strips of phosphocellulose P81 paper. Following washing, the radioactivity of the P81 paper was measured and kinase activity data were expressed as the percent remaining kinase activity in test samples compared to vehicle reactions. IC50 values and curve fits were obtained using Prism (GraphPad Software).
as §1, with “μg/L)” for “μg/μL)”, “Na3VO4,” for “Na3 VO4,”, “(Echo550;” for “(Echo550,”

T1 sequence (Q8TDX7 whole entry): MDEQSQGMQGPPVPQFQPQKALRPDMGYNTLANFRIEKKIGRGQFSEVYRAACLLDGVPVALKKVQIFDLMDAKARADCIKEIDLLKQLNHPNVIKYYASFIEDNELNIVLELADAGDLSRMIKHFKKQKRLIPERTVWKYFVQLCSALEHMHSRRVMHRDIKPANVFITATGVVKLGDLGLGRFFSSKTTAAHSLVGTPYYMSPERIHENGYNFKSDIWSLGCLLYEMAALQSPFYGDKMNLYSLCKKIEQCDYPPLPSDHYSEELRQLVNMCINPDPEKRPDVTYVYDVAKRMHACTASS

CC(C)(C)c1cc(NC(=O)Nc2ccc(Oc3ccnc4[nH]ccc34)cc2F)n(-c2ccccc2)n1 [Ib-1, 1-(4-((1H-pyrrolo[2,3-b]pyridin-4-yl)oxy)-2-fluorophenyl)-3-(3-(tert-butyl)-1-phenyl-1H-pyrazol-5-yl)urea]
IC50 (Table 2b): > 1500 nM

CN1C[C@@H]2CN(Cc3ccc(NC(=O)Nc4ccc(Oc5ccnc6[nH]cc(Cl)c56)cc4F)cc3C(F)(F)F)C[C@@H]2C1 [Ie-18, 1-(4-((3-chloro-1H-pyrrolo[2,3-b]pyridin-4-yl)oxy)-2-fluorophenyl)-3-(4-(((3aR,6aS)-5-methylhexahydropyrrolo[3,4-c]pyrrol-2(1H)-yl)methyl)-3-(trifluoromethyl)phenyl)urea]
IC50 (Table 2e): > 1500 nM

O=C(Nc1ccc(CN2CCOCC2)c(F)c1)Nc1ccc(Oc2ccnc3[nH]cc(Cl)c23)cc1F [Ie-2, 1-(4-((3-chloro-1H-pyrrolo[2,3-b]pyridin-4-yl)oxy)-2-fluorophenyl)-3-(3-fluoro-4-(morpholinomethyl)phenyl)urea]
IC50 (Table 2e): > 1500 nM

CN1CCN(c2ccc(NC(=O)Nc3ccc(Oc4ccnc5[nH]cc(Cl)c45)cc3F)cc2C(F)(F)F)CC1 [Ie-14, 1-(4-((3-chloro-1H-pyrrolo[2,3-b]pyridin-4-yl)oxy)-2-fluorophenyl)-3-(4-(4-methylpiperazin-1-yl)-3-(trifluoromethyl)phenyl)urea]
IC50 (Table 2e): > 1500 nM

CC(C)(F)c1cc(NC(=O)Nc2ccc(-c3nn(C4CC4)c4ncnc(N)c34)cc2F)on1 [Ia-27, 1-(4-(4-amino-1-cyclopropyl-1H-pyrazolo[3,4-d]pyrimidin-3-yl)-2-fluorophenyl)-3-(3-(2-fluoropropan-2-yl)isoxazol-5-yl)urea]
IC50 (Table 2a): 501 to 1500 nM

CN1CCN(Cc2ccc(NC(=O)Nc3ccc(-c4cn(C5CC5)c5ncnc(N)c45)cc3F)cc2C#N)CC1 [Id-53, 1-(4-(4-amino-7-cyclopropyl-7H-pyrrolo[2,3-d]pyrimidin-5-yl)-2-fluorophenyl)-3-(3-cyano-4-((4-methylpiperazin-1-yl)methyl)phenyl)urea]
IC50 (Table 2d): > 1500 nM

CN1CCN(Cc2ccc(NC(=O)Nc3ccc(-c4cn(C5CC5)c5ncnc(N)c45)cc3F)cc2)CC1 [Id-56]
IC50 (Table 2d): > 1500 nM

CC(C)(C)c1cc(NC(=O)Nc2ccc(-c3nn(C4CCOC4)c4ncnc(N)c34)cc2)on1 (stereo not drawn) [Ia-5, 1-(4-(4-amino-1-(tetrahydrofuran-3-yl)-1H-pyrazolo[3,4-d]pyrimidin-3-yl)phenyl)-3-(3-(tert-butyl)isoxazol-5-yl)urea]
IC50 (Table 2a): 151 to 300 nM

CC(C)(C)c1cc(NC(=O)Nc2ccc(-c3nn(C4CCOCC4)c4ncnc(N)c34)cc2)on1 [Ia-4, 1-(4-(4-amino-1-(tetrahydro-2H-pyran-4-yl)-1H-pyrazolo[3,4-d]pyrimidin-3-yl)phenyl)-3-(3-(tert-butyl)isoxazol-5-yl)urea]
IC50 (Table 2a): 301 to 500 nM

CN1CCN(Cc2ccc(NC(=O)Nc3ccc(-c4cn(C5CC5)c5ncnc(N)c45)cc3Cl)cc2C(F)(F)F)CC1 [Id-34, 1-(4-(4-amino-7-cyclopropyl-7H-pyrrolo[2,3-d]pyrimidin-5-yl)-2-chlorophenyl)-3-(4-((4-methylpiperazin-1-yl)methyl)-3-(trifluoromethyl)phenyl)urea]
IC50 (Table 2d): 151 to 300 nM

CN1CCN(Cc2ccc(NC(=O)Nc3ccc(-c4cn(C5CC5)c5ncnc(N)c45)cc3F)cc2Cl)CC1 [Id-36, 1-(4-(4-amino-7-cyclopropyl-7H-pyrrolo[2,3-d]pyrimidin-5-yl)-2-fluorophenyl)-3-(3-chloro-4-((4-methylpiperazin-1-yl)methyl)phenyl)urea]
IC50 (Table 2d): < 150 nM

Nc1ncnc2c1c(-c1ccc(NC(=O)Nc3ccc(CN4CCNCC45CC5)c(C(F)(F)F)c3)c(F)c1)cn2C1CC1 [Id-65, 1-(4-((4,7-diazaspiro[2,5]octan-4-yl)methyl)-3-(trifluoromethyl)phenyl)-3-(4-(4-amino-7-cyclopropyl-7H-pyrrolo[2,3-d]pyrimidin-5-yl)-2-fluorophenyl)urea]
IC50 (Table 2d): < 150 nM
